From PubChem BioAssay (NCI)
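Values below derive from 48-hour exposures of cells grown in 96-well plates, with endpoints linearly interpolated between the two concentrations bracketing the appropriate inhibition level. The concentration for full growth arrest is given as TGI.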

Columns and labels:
Assay in all cases: NCI anticancer screen, dose series, 48 h
[1] = test system: MDA-MB-435
[2] = test system: OVCAR-3 ovarian
[3] = test system: 786-0 renal
[4] = test system: SF-268 CNS
[5] = test system: PC-3 prostate
[6] = test system: HCT-116 colon
[7] = test system: UO-31 renal
[8] = test system: HCC-2998 colon
[9] = test system: SK-MEL-5 melanoma
[10] = test system: SNB-75 CNS
[11] = test system: NCI-H226 lung
[12] = test system: TK-10 renal
[13] = test system: MDA-MB-231 breast
[14] = test system: HOP-92 NSCLC
[15] = test system: SF-539 CNS
[16] = test system: IGROV1 ovarian
[17] = test system: M14 melanoma
[18] = test system: COLO 205 colon
[19] = test system: HOP-62 NSCLC
[20] = test system: UACC-257 melanoma
[21] = test system: MALME-3M melanoma
[22] = test system: NCI-H460 lung
[23] = test system: HCT-15 colon
[24] = test system: RPMI-8226 leukemia
[25] = test system: NCI-H522 lung
[26] = test system: A498 renal
[27] = test system: A549 NSCLC
[28] = test system: EKVX NSCLC
[29] = test system: BT-549 breast
[30] = test system: MDA-N
[31] = test system: CAKI-1 renal
[32] = test system: SW-620 colon
[33] = test system: T-47D breast
[34] = test system: OVCAR-4 ovarian
[35] = test system: SK-MEL-28 melanoma
[36] = test system: SK-MEL-2 melanoma
[37] = test system: KM12 colon
[38] = test system: MCF7 breast
[39] = test system: ACHN renal
[40] = test system: SF-295 CNS
[41] = test system: OVCAR-8 ovarian
[42] = test system: OVCAR-5 ovarian
[43] = test system: SNB-19 CNS
[44] = test system: U251 CNS
[45] = test system: NCI-H23 lung
[46] = test system: RXF 393 renal
[47] = test system: NCI/ADR-RES ovarian
[48] = test system: SK-OV-3 ovarian
[49] = test system: SN12C renal
[50] = test system: LOX IMVI melanoma
[51] = test system: CCRF-CEM leukemia
[52] = test system: DU-145 prostate
[53] = test system: UACC-62 melanoma
[54] = test system: HT29 colon
[55] = test system: K-562 leukemia
[56] = test system: MOLT-4 leukemia
[57] = test system: SR leukemia
[58] = test system: HS 578T breast

Nc1ccc2ccc(-c3ccc[nH]3)nc2n1
TGI [1]: > 100 µM
TGI [2]: > 100 µM
TGI [3]: > 100 µM
TGI [4]: > 100 µM
TGI [5]: > 100 µM
TGI [6]: > 100 µM
TGI [7]: > 100 µM
TGI [8]: > 100 µM
TGI [9]: > 100 µM
TGI [10]: > 100 µM
TGI [11]: > 100 µM
TGI [12]: > 100 µM
TGI [13]: > 100 µM
TGI [14]: > 100 µM
TGI [15]: > 100 µM
TGI [16]: > 100 µM
TGI [17]: > 100 µM
TGI [18]: > 100 µM
TGI [19]: > 100 µM
TGI [20]: > 100 µM
TGI [21]: > 100 µM
TGI [22]: > 100 µM
TGI [23]: > 100 µM
TGI [24]: > 100 µM
TGI [25]: > 100 µM
TGI [26]: > 100 µM
TGI [27]: > 100 µM
TGI [28]: > 100 µM
TGI [29]: > 100 µM
TGI [30]: > 100 µM
TGI [31]: > 100 µM
TGI [32]: > 100 µM
TGI [33]: > 100 µM
TGI [34]: > 100 µM
TGI [35]: > 100 µM
TGI [36]: > 100 µM
TGI [37]: > 100 µM
TGI [38]: > 100 µM
TGI [39]: > 100 µM
TGI [40]: > 100 µM
TGI [41]: > 100 µM
TGI [42]: > 100 µM
TGI [43]: > 100 µM
TGI [44]: > 100 µM
TGI [45]: > 100 µM
TGI [46]: > 100 µM
TGI [47]: > 100 µM
TGI [48]: > 100 µM
TGI [49]: > 100 µM
TGI [50]: > 100 µM

COc1c(C)c(C/C=C(\C)CC/C=C(\C)CC/C=C(\C)CCC=C(C)C)c(OC)c2ccccc12
TGI [51]: 64.1 µM
TGI [1]: > 100 µM
TGI [2]: > 100 µM
TGI [3]: > 100 µM
TGI [4]: > 100 µM
TGI [5]: > 100 µM
TGI [6]: > 100 µM
TGI [7]: > 100 µM
TGI [9]: > 100 µM
TGI [10]: > 100 µM
TGI [52]: > 100 µM
TGI [12]: > 100 µM
TGI [13]: > 100 µM
TGI [14]: > 100 µM
TGI [15]: > 100 µM
TGI [53]: > 100 µM
TGI [16]: > 100 µM
TGI [17]: > 100 µM
TGI [18]: > 100 µM
TGI [19]: > 100 µM
TGI [20]: > 100 µM
TGI [22]: > 100 µM
TGI [23]: > 100 µM
TGI [54]: > 100 µM
TGI [25]: > 100 µM
TGI [55]: > 100 µM
TGI [27]: > 100 µM
TGI [28]: > 100 µM
TGI [29]: > 100 µM
TGI [30]: > 100 µM
TGI [56]: > 100 µM
TGI [31]: > 100 µM
TGI [32]: > 100 µM
TGI [34]: > 100 µM
TGI [36]: > 100 µM
TGI [37]: > 100 µM
TGI [38]: > 100 µM
TGI [39]: > 100 µM
TGI [40]: > 100 µM
TGI [41]: > 100 µM
TGI [42]: > 100 µM
TGI [57]: 90.6 µM
TGI [43]: > 100 µM
TGI [58]: > 100 µM
TGI [44]: > 100 µM
TGI [45]: > 100 µM
TGI [46]: > 100 µM
TGI [47]: > 100 µM
TGI [48]: > 100 µM
TGI [49]: > 100 µM
TGI [50]: > 100 µM
